{
  "source": "paper doi:10.1101/2023.11.24.568596v1",
  "about": "(biorxiv, 2023)",
  "details_in_all_cases": "binder",
  "key": {"PIM1": {"target": "PIM1 (Homo sapiens, UniProt P11309)", "sequence (P11309 whole entry)": "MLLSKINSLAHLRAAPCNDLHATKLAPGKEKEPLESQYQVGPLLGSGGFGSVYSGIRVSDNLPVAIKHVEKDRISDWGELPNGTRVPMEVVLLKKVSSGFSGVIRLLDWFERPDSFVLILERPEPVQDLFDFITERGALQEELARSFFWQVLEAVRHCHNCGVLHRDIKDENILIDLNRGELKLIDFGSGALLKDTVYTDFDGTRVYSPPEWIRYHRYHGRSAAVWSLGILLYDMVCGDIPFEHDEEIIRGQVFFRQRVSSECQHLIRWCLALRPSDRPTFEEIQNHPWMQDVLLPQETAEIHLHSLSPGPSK"}, "CaMKK2": {"target": "CaMKK2 (Homo sapiens, UniProt Q96RR4)"}, "CK1e": {"target": "CK1e (Homo sapiens, UniProt P49674)", "sequence (P49674 whole entry)": "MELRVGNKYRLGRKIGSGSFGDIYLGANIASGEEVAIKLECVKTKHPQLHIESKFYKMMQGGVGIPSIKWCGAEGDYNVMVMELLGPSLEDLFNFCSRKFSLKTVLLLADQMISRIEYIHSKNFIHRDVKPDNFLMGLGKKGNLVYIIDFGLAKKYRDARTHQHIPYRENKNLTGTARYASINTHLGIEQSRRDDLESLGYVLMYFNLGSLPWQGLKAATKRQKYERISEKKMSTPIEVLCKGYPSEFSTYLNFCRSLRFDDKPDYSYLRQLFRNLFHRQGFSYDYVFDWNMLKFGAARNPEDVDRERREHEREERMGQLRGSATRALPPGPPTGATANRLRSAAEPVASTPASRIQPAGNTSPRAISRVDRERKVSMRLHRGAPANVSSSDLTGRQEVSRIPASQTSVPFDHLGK"}, "MARK3": {"target": "MARK3 (Homo sapiens, UniProt P27448)"}, "AKT3": {"target": "AKT3 (Homo sapiens, UniProt Q9Y243)", "sequence (Q9Y243 whole entry)": "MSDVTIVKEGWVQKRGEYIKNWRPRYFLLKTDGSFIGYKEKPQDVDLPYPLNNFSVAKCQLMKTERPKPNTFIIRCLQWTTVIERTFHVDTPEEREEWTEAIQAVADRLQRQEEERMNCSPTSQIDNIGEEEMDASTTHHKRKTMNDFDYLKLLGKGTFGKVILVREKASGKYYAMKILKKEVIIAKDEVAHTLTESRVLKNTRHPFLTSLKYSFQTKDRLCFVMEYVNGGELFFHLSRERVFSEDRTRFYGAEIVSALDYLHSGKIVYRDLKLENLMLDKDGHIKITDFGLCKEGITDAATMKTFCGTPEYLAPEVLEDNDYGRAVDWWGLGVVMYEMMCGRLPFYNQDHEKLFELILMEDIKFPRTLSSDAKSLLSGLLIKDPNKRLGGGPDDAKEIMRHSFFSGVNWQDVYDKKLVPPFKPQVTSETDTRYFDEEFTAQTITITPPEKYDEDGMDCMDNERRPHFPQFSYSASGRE"}, "ABL1": {"target": "ABL1 (Homo sapiens, UniProt P00519)", "sequence (P00519 whole entry)": "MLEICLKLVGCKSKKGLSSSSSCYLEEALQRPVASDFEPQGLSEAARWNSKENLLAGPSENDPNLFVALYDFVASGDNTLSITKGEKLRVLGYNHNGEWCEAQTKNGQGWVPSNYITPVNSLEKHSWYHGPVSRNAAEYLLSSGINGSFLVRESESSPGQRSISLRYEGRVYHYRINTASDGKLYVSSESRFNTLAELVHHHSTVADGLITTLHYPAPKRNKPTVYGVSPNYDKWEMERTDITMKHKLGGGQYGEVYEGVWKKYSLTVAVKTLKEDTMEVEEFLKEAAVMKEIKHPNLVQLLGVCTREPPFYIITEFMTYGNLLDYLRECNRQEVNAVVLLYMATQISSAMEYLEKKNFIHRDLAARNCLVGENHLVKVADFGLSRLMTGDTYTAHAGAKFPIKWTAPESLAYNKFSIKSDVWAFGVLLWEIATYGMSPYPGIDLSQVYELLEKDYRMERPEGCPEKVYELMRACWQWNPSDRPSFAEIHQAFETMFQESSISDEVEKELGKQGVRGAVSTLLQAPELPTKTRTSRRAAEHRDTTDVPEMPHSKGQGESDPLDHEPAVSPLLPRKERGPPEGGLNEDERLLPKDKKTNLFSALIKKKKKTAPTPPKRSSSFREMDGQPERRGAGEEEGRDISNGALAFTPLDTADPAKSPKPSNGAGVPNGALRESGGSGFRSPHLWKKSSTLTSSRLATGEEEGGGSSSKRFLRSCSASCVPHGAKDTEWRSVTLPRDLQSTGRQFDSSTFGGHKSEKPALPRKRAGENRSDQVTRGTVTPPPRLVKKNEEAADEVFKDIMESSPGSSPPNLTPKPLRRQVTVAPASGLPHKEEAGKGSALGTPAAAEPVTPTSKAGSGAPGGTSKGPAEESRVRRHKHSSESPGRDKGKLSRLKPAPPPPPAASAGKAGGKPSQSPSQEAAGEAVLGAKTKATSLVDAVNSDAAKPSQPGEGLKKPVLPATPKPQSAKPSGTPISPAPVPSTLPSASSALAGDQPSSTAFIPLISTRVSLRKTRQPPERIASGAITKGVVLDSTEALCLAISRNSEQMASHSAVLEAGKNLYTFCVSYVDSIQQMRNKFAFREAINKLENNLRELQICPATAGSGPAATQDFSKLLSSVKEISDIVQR"}, "Erk2": {"target": "Erk2 (Homo sapiens, UniProt P28482)", "sequence (P28482 whole entry)": "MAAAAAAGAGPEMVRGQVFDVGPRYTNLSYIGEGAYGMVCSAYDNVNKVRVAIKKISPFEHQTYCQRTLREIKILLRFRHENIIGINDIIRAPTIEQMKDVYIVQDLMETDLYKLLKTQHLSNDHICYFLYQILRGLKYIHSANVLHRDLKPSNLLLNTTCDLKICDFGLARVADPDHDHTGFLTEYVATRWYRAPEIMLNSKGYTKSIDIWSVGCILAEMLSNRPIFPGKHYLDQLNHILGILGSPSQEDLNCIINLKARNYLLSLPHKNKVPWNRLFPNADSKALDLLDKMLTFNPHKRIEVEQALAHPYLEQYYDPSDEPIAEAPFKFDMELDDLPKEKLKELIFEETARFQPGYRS"}, "SLK": {"target": "SLK (Homo sapiens, UniProt Q9H2G2)", "sequence (Q9H2G2 whole entry)": "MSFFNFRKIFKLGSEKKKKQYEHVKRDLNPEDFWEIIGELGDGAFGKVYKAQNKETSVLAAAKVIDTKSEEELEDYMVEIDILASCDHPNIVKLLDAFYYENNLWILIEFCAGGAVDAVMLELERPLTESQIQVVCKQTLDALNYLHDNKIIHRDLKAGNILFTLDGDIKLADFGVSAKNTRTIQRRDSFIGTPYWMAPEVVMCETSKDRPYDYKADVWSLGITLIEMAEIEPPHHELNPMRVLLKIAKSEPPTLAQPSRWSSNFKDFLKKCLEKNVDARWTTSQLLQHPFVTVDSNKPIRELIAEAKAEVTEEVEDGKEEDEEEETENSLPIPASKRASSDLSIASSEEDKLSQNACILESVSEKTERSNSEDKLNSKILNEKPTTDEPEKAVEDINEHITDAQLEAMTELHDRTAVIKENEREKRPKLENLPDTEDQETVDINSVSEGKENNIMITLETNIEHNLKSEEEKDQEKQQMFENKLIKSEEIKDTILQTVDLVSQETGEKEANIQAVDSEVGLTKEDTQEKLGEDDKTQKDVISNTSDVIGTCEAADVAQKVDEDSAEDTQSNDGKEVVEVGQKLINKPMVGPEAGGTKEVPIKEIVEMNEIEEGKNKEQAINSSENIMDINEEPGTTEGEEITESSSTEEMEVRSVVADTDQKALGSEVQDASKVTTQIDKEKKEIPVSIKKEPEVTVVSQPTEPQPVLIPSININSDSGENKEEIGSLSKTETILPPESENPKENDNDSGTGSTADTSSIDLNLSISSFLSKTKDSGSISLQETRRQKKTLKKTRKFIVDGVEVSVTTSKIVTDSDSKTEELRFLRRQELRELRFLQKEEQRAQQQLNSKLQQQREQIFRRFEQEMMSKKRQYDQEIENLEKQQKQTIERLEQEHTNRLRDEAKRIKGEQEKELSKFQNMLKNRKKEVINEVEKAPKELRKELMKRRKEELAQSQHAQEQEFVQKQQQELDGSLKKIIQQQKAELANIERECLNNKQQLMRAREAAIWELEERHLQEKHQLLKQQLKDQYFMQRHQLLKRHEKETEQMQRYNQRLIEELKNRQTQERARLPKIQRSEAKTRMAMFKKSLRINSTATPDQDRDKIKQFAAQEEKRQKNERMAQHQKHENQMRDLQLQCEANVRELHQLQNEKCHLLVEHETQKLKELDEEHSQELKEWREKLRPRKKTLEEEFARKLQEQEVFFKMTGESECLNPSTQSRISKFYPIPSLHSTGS"}, "PIM3": {"target": "PIM3 (Homo sapiens, UniProt Q86V86)"}, "BRD4": {"target": "BRD4 (Homo sapiens, UniProt O60885)"}, "TAF1": {"target": "TAF1 (Homo sapiens, UniProt P21675)"}, "PAK4": {"target": "PAK4 (Homo sapiens, UniProt O96013)", "sequence (O96013 whole entry)": "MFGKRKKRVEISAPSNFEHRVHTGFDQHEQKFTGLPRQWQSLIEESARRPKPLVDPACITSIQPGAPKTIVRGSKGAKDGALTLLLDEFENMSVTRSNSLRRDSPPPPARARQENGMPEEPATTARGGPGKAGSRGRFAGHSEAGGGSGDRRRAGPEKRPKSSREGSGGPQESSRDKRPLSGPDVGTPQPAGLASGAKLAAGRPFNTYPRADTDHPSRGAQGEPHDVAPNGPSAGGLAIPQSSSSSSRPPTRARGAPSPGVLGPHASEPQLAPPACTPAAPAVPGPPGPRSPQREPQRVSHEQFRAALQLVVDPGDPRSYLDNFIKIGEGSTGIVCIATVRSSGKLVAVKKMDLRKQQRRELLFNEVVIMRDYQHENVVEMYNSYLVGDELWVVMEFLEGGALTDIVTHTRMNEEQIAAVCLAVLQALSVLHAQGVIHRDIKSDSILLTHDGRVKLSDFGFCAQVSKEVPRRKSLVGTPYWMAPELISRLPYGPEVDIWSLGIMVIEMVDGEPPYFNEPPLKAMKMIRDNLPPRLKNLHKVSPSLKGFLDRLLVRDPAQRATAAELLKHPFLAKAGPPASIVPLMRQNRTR"}, "DCAMKL1": {"target": "T1, DCAMKL1 (Homo sapiens, UniProt O15075)", "T1 sequence (O15075 1-740)": "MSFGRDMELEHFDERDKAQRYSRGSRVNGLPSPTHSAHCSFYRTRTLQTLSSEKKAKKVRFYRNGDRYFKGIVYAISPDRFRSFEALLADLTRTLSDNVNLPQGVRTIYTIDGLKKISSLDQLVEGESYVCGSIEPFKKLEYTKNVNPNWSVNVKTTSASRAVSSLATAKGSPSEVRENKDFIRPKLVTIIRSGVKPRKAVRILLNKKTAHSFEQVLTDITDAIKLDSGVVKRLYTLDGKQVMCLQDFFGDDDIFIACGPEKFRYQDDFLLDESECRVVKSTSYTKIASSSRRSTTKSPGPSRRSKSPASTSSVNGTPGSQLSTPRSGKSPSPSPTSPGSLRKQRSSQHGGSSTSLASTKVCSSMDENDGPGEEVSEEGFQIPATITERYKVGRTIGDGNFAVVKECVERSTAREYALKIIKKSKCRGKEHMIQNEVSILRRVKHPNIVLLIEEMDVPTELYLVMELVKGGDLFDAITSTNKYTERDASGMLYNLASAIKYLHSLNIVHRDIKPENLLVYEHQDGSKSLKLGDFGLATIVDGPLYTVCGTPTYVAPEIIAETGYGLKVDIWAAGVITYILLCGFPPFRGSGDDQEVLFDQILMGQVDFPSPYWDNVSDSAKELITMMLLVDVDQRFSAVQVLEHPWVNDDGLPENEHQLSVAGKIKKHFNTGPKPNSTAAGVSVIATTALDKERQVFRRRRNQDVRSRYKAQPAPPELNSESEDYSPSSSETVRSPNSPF"}, "EphB3": {"target": "T2, EphB3 (Homo sapiens, UniProt P54753)", "T2 sequence (P54753 1-998)": "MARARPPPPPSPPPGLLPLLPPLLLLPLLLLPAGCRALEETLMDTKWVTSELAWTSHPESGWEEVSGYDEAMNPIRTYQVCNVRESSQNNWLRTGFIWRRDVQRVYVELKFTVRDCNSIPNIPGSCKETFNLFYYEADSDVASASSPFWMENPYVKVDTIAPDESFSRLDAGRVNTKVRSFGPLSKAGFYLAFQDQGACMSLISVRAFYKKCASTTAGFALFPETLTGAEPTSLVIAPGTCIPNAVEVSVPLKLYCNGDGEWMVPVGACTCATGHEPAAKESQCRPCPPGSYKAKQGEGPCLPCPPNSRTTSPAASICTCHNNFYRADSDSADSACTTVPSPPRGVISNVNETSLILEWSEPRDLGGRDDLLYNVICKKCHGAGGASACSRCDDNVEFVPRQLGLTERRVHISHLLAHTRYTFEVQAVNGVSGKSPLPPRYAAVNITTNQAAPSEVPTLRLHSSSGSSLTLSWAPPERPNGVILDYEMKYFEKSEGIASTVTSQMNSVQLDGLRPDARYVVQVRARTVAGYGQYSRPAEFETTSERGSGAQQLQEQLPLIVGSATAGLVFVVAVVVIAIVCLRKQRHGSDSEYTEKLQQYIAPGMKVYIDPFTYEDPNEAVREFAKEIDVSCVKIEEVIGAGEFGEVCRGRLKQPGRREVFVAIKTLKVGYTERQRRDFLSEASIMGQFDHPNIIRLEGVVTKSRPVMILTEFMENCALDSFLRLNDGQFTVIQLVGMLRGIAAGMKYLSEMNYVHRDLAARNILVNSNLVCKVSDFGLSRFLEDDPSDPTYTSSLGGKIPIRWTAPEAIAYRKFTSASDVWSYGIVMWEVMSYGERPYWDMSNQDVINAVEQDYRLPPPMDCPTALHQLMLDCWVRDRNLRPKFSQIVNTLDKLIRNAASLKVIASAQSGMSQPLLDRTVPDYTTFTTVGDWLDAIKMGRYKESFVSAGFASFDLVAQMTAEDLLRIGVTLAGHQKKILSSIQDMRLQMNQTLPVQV"}},
  "data": [
    {"compound": "Cc1cccc(-c2ccc(-c3cc4cnc(Nc5ccc(F)c(CO)c5)nc4n(CCCCN)c3=O)c(Cl)c2)n1", "note": "[compound 33, 8-(4-Aminobutyl)-6-(2-chloro-4-(6-methylpyridin-2-yl)phenyl)-2-((4-fluoro-3-(hydroxymethyl)phenyl)amino)pyrido[2,3-d]pyrimidin-7(8H)-one]", "values": [
      {"measurement": "dTm 33", "setting": "PIM1", "value": 3.3, "unit": "°C"},
      {"measurement": "dTm 33", "setting": "CaMKK2", "value": 4.3, "unit": "°C"},
      {"measurement": "dTm 33", "setting": "CK1e", "value": 6.9, "unit": "°C"},
      {"measurement": "dTm 33", "setting": "MARK3", "value": 11.5, "unit": "°C"},
      {"measurement": "dTm 33", "setting": "AKT3", "value": 4.6, "unit": "°C"},
      {"measurement": "dTm 33", "setting": "ABL1", "value": 10.6, "unit": "°C"},
      {"measurement": "dTm 33", "setting": "Erk2", "value": -0.7, "unit": "°C"},
      {"measurement": "dTm 33", "setting": "SLK", "value": 8.0, "unit": "°C"},
      {"measurement": "dTm 33", "setting": "PIM3", "value": 4.6, "unit": "°C"},
      {"measurement": "dTm 33", "setting": "BRD4", "value": -3.7, "unit": "°C"},
      {"measurement": "dTm 33", "setting": "TAF1", "value": -0.2, "unit": "°C"},
      {"measurement": "dTm 33", "setting": "PAK4", "value": 8.2, "unit": "°C"},
      {"measurement": "dTm 33", "setting": "DCAMKL1", "value": 1.2, "unit": "°C"},
      {"measurement": "dTm 33", "setting": "EphB3", "value": 8.7, "unit": "°C"}
    ]},
    {"compound": "COc1ccc(O)c(Nc2ncc3cc(-c4ccc(-c5cccc(C)n5)cc4Cl)c(=O)n(CCCCN)c3n2)c1", "note": "[compound 34, 8-(4-Aminobutyl)-6-(2-chloro-4-(6-methylpyridin-2-yl)phenyl)-2-((2-hydroxy-5-methoxy-phenyl)amino)pyrido[2,3-d]pyrimidin-7(8H)-one]", "values": [
      {"measurement": "dTm 34", "setting": "PIM1", "value": 2.7, "unit": "°C"},
      {"measurement": "dTm 34", "setting": "CaMKK2", "value": 4.3, "unit": "°C"},
      {"measurement": "dTm 34", "setting": "CK1e", "value": 6.5, "unit": "°C"},
      {"measurement": "dTm 34", "setting": "MARK3", "value": 5.1, "unit": "°C"},
      {"measurement": "dTm 34", "setting": "AKT3", "value": 1.3, "unit": "°C"},
      {"measurement": "dTm 34", "setting": "ABL1", "value": 5.2, "unit": "°C"},
      {"measurement": "dTm 34", "setting": "Erk2", "value": -2.7, "unit": "°C"},
      {"measurement": "dTm 34", "setting": "SLK", "value": 4.7, "unit": "°C"},
      {"measurement": "dTm 34", "setting": "PIM3", "value": 2.4, "unit": "°C"},
      {"measurement": "dTm 34", "setting": "BRD4", "value": -1.8, "unit": "°C"},
      {"measurement": "dTm 34", "setting": "TAF1", "value": 0.1, "unit": "°C"},
      {"measurement": "dTm 34", "setting": "PAK4", "value": 3.0, "unit": "°C"},
      {"measurement": "dTm 34", "setting": "DCAMKL1", "value": -0.3, "unit": "°C"},
      {"measurement": "dTm 34", "setting": "EphB3", "value": 4.1, "unit": "°C"}
    ]},
    {"compound": "COc1cc(N2CCOCC2)ccc1Nc1ncc2cc(-c3ccc(-c4cccc(C)n4)cc3Cl)c(=O)n(CCCCN)c2n1", "note": "[compound 35, 8-(4-Aminobutyl)-6-(2-chloro-4-(6-methylpyridin-2-yl)phenyl)-2-((2-methoxy-4-morpholino-phenyl)amino)pyrido[2,3-d]pyrimidin-7(8H)-one]", "values": [
      {"measurement": "dTm 35", "setting": "PIM1", "value": -0.9, "unit": "°C"},
      {"measurement": "dTm 35", "setting": "CaMKK2", "value": 6.9, "unit": "°C"},
      {"measurement": "dTm 35", "setting": "CK1e", "value": 6.6, "unit": "°C"},
      {"measurement": "dTm 35", "setting": "MARK3", "value": 6.9, "unit": "°C"},
      {"measurement": "dTm 35", "setting": "AKT3", "value": 1.0, "unit": "°C"},
      {"measurement": "dTm 35", "setting": "ABL1", "value": 5.8, "unit": "°C"},
      {"measurement": "dTm 35", "setting": "Erk2", "value": -3.0, "unit": "°C"},
      {"measurement": "dTm 35", "setting": "SLK", "value": 5.1, "unit": "°C"},
      {"measurement": "dTm 35", "setting": "PIM3", "value": -2.4, "unit": "°C"},
      {"measurement": "dTm 35", "setting": "BRD4", "value": -3.6, "unit": "°C"},
      {"measurement": "dTm 35", "setting": "TAF1", "value": -0.7, "unit": "°C"},
      {"measurement": "dTm 35", "setting": "PAK4", "value": 4.1, "unit": "°C"},
      {"measurement": "dTm 35", "setting": "DCAMKL1", "value": 2.0, "unit": "°C"},
      {"measurement": "dTm 35", "setting": "EphB3", "value": 4.5, "unit": "°C"}
    ]},
    {"compound": "COc1cc(N2CCN(C)CC2)ccc1Nc1ncc2cc(-c3ccc(-c4cccc(C)n4)cc3Cl)c(=O)n(CCCCN)c2n1", "note": "[compound 36, 8-(4-Aminobutyl)-6-(2-chloro-4-(6-methylpyridin-2-yl)phenyl)-2-((2-methoxy-4-(4-methylpiperazin-1-yl)phenyl)amino)pyrido[2,3-d]pyrimidin-7(8H)-one]", "values": [
      {"measurement": "dTm 36", "setting": "PIM1", "value": -0.1, "unit": "°C"},
      {"measurement": "dTm 36", "setting": "CaMKK2", "value": 5.8, "unit": "°C"},
      {"measurement": "dTm 36", "setting": "CK1e", "value": 5.1, "unit": "°C"},
      {"measurement": "dTm 36", "setting": "MARK3", "value": 8.5, "unit": "°C"},
      {"measurement": "dTm 36", "setting": "AKT3", "value": 1.0, "unit": "°C"},
      {"measurement": "dTm 36", "setting": "ABL1", "value": 5.0, "unit": "°C"},
      {"measurement": "dTm 36", "setting": "Erk2", "value": -2.7, "unit": "°C"},
      {"measurement": "dTm 36", "setting": "SLK", "value": 4.2, "unit": "°C"},
      {"measurement": "dTm 36", "setting": "PIM3", "value": -2.1, "unit": "°C"},
      {"measurement": "dTm 36", "setting": "BRD4", "value": -3.5, "unit": "°C"},
      {"measurement": "dTm 36", "setting": "TAF1", "value": -0.4, "unit": "°C"},
      {"measurement": "dTm 36", "setting": "PAK4", "value": 3.9, "unit": "°C"},
      {"measurement": "dTm 36", "setting": "DCAMKL1", "value": 1.3, "unit": "°C"},
      {"measurement": "dTm 36", "setting": "EphB3", "value": 3.3, "unit": "°C"}
    ]}
  ]
}
